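The compound was tested at five concentrations on cells cultured in 96-well plates, with a 48-hour exposure period. The concentration for 50% growth inhibition is given as GI50. TGI: total growth inhibition.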
What was measured:
Assay in all cases: growth of human tumour cells (NCI), 48 h
786-0 renal = system: 786-0 renal
NCI-H460 lung = system: NCI-H460 lung
TK-10 renal = system: TK-10 renal
NCI/ADR-RES ovarian = system: NCI/ADR-RES ovarian
HOP-92 NSCLC = system: HOP-92 NSCLC
SK-OV-3 ovarian = system: SK-OV-3 ovarian
MDA-N = system: MDA-N
COLO 205 colon = system: COLO 205 colon
CAKI-1 renal = system: CAKI-1 renal
LOX IMVI melanoma = system: LOX IMVI melanoma
UO-31 renal = system: UO-31 renal
SK-MEL-28 melanoma = system: SK-MEL-28 melanoma
SK-MEL-5 melanoma = system: SK-MEL-5 melanoma
SNB-75 CNS = system: SNB-75 CNS
MOLT-4 leukemia = system: MOLT-4 leukemia
MDA-MB-435 = system: MDA-MB-435
NCI-H226 lung = system: NCI-H226 lung
MDA-MB-231 breast = system: MDA-MB-231 breast
IGROV1 ovarian = system: IGROV1 ovarian
HT29 colon = system: HT29 colon
BT-549 breast = system: BT-549 breast
A549 NSCLC = system: A549 NSCLC
SF-539 CNS = system: SF-539 CNS
HS 578T breast = system: HS 578T breast
NCI-H23 lung = system: NCI-H23 lung
NCI-H522 lung = system: NCI-H522 lung
ACHN renal = system: ACHN renal
K-562 leukemia = system: K-562 leukemia
SNB-19 CNS = system: SNB-19 CNS
OVCAR-5 ovarian = system: OVCAR-5 ovarian
RXF 393 renal = system: RXF 393 renal
A498 renal = system: A498 renal
M14 melanoma = system: M14 melanoma
RPMI-8226 leukemia = system: RPMI-8226 leukemia
OVCAR-3 ovarian = system: OVCAR-3 ovarian
UACC-257 melanoma = system: UACC-257 melanoma
HCT-15 colon = system: HCT-15 colon
SN12C renal = system: SN12C renal
OVCAR-4 ovarian = system: OVCAR-4 ovarian
HOP-62 NSCLC = system: HOP-62 NSCLC
EKVX NSCLC = system: EKVX NSCLC
MALME-3M melanoma = system: MALME-3M melanoma
SK-MEL-2 melanoma = system: SK-MEL-2 melanoma
DU-145 prostate = system: DU-145 prostate
SF-295 CNS = system: SF-295 CNS
T-47D breast = system: T-47D breast
HCC-2998 colon = system: HCC-2998 colon
SF-268 CNS = system: SF-268 CNS
HL-60(TB) leukemia = system: HL-60(TB) leukemia
U251 CNS = system: U251 CNS
MCF7 breast = system: MCF7 breast
SR leukemia = system: SR leukemia
UACC-62 melanoma = system: UACC-62 melanoma
HCT-116 colon = system: HCT-116 colon
CCRF-CEM leukemia = system: CCRF-CEM leukemia
SW-620 colon = system: SW-620 colon
PC-3 prostate = system: PC-3 prostate
KM12 colon = system: KM12 colon
OVCAR-8 ovarian = system: OVCAR-8 ovarian

CC(=N/NC(=S)N1CCCCC1)/C(C)=N\NC(=S)N1CCCCC1
TGI (786-0 renal): 3.1 µM | TGI (NCI-H460 lung): 3.6 µM | TGI (TK-10 renal): 3.24 µM | TGI (NCI/ADR-RES ovarian): 5.22 µM | TGI (HOP-92 NSCLC): 2.85 µM | TGI (SK-OV-3 ovarian): 3.32 µM | TGI (MDA-N): 6.44 µM | TGI (COLO 205 colon): 3.62 µM | TGI (CAKI-1 renal): 3.23 µM | TGI (LOX IMVI melanoma): > 100 µM | TGI (UO-31 renal): 2.79 µM | TGI (SK-MEL-28 melanoma): 3.99 µM | TGI (SK-MEL-5 melanoma): 3.07 µM | TGI (SNB-75 CNS): 3.14 µM | TGI (MOLT-4 leukemia): > 100 µM | TGI (MDA-MB-435): 3.79 µM | TGI (NCI-H226 lung): 3 µM | TGI (MDA-MB-231 breast): 5.63 µM | TGI (IGROV1 ovarian): 3.13 µM | TGI (HT29 colon): 4.07 µM | TGI (BT-549 breast): 3.38 µM | TGI (A549 NSCLC): 4.04 µM | TGI (SF-539 CNS): 5.58 µM | TGI (HS 578T breast): 5.76 µM | TGI (NCI-H23 lung): 4.82 µM | TGI (NCI-H522 lung): 4.74 µM | TGI (ACHN renal): 2.92 µM | TGI (K-562 leukemia): 6.89 µM | TGI (SNB-19 CNS): 3.54 µM | TGI (OVCAR-5 ovarian): 3.82 µM | TGI (RXF 393 renal): 3.2 µM | TGI (A498 renal): 2.86 µM | TGI (M14 melanoma): 4.57 µM | TGI (RPMI-8226 leukemia): 5.13 µM | TGI (OVCAR-3 ovarian): 3.39 µM | TGI (UACC-257 melanoma): 4.09 µM | TGI (HCT-15 colon): 5.31 µM | TGI (SN12C renal): 3.2 µM | TGI (OVCAR-4 ovarian): 3.46 µM | TGI (HOP-62 NSCLC): 3.51 µM | TGI (EKVX NSCLC): 3.11 µM | TGI (MALME-3M melanoma): 3.61 µM | TGI (SK-MEL-2 melanoma): 4.65 µM | TGI (DU-145 prostate): 3.05 µM | TGI (SF-295 CNS): 3.74 µM | TGI (T-47D breast): 3.27 µM | TGI (HCC-2998 colon): 3.48 µM | TGI (SF-268 CNS): 3.45 µM

COc1cc(C)[nH]c(=O)c1CN1CCc2c(Cl)cc([C@H](OC)C3COC3)c(Cl)c2C1=O
GI50 (786-0 renal): > 100 µM | TGI (786-0 renal): > 100 µM | GI50 (HL-60(TB) leukemia): > 100 µM | TGI (HL-60(TB) leukemia): > 100 µM | GI50 (NCI-H460 lung): > 100 µM | TGI (NCI-H460 lung): > 100 µM | GI50 (TK-10 renal): > 100 µM | TGI (TK-10 renal): > 100 µM | GI50 (NCI/ADR-RES ovarian): > 100 µM | TGI (NCI/ADR-RES ovarian): > 100 µM | GI50 (HOP-92 NSCLC): > 100 µM | TGI (HOP-92 NSCLC): > 100 µM | GI50 (U251 CNS): > 100 µM | TGI (U251 CNS): > 100 µM | GI50 (SK-OV-3 ovarian): > 100 µM | TGI (SK-OV-3 ovarian): > 100 µM | GI50 (COLO 205 colon): > 100 µM | TGI (COLO 205 colon): > 100 µM | GI50 (CAKI-1 renal): > 100 µM | TGI (CAKI-1 renal): > 100 µM | GI50 (LOX IMVI melanoma): > 100 µM | TGI (LOX IMVI melanoma): > 100 µM | GI50 (MCF7 breast): > 100 µM | TGI (MCF7 breast): > 100 µM | GI50 (UO-31 renal): > 100 µM | TGI (UO-31 renal): > 100 µM | GI50 (SK-MEL-28 melanoma): > 100 µM | TGI (SK-MEL-28 melanoma): > 100 µM | GI50 (SK-MEL-5 melanoma): > 100 µM | TGI (SK-MEL-5 melanoma): > 100 µM | GI50 (SNB-75 CNS): > 100 µM | TGI (SNB-75 CNS): > 100 µM | GI50 (MOLT-4 leukemia): > 100 µM | TGI (MOLT-4 leukemia): > 100 µM | GI50 (MDA-MB-435): > 100 µM | TGI (MDA-MB-435): > 100 µM | GI50 (NCI-H226 lung): > 100 µM | TGI (NCI-H226 lung): > 100 µM | GI50 (MDA-MB-231 breast): > 100 µM | TGI (MDA-MB-231 breast): > 100 µM | GI50 (IGROV1 ovarian): > 100 µM | TGI (IGROV1 ovarian): > 100 µM | GI50 (HT29 colon): > 100 µM | TGI (HT29 colon): > 100 µM | GI50 (SR leukemia): > 100 µM | TGI (SR leukemia): > 100 µM | GI50 (BT-549 breast): > 100 µM | TGI (BT-549 breast): > 100 µM | GI50 (A549 NSCLC): > 100 µM | TGI (A549 NSCLC): > 100 µM | GI50 (UACC-62 melanoma): > 100 µM | TGI (UACC-62 melanoma): > 100 µM | GI50 (SF-539 CNS): > 100 µM | TGI (SF-539 CNS): > 100 µM | GI50 (HS 578T breast): > 100 µM | TGI (HS 578T breast): > 100 µM | GI50 (NCI-H23 lung): > 100 µM | TGI (NCI-H23 lung): > 100 µM | GI50 (NCI-H522 lung): > 100 µM | TGI (NCI-H522 lung): > 100 µM | GI50 (ACHN renal): > 100 µM | TGI (ACHN renal): > 100 µM | GI50 (K-562 leukemia): > 100 µM | TGI (K-562 leukemia): > 100 µM | GI50 (SNB-19 CNS): > 100 µM | TGI (SNB-19 CNS): > 100 µM | GI50 (OVCAR-5 ovarian): > 100 µM | TGI (OVCAR-5 ovarian): > 100 µM | GI50 (RXF 393 renal): > 100 µM | TGI (RXF 393 renal): > 100 µM | GI50 (A498 renal): > 100 µM | TGI (A498 renal): > 100 µM | GI50 (M14 melanoma): > 100 µM | TGI (M14 melanoma): > 100 µM | GI50 (RPMI-8226 leukemia): > 100 µM | TGI (RPMI-8226 leukemia): > 100 µM | GI50 (OVCAR-3 ovarian): > 100 µM | TGI (OVCAR-3 ovarian): > 100 µM | GI50 (UACC-257 melanoma): > 100 µM | TGI (UACC-257 melanoma): > 100 µM | GI50 (HCT-15 colon): > 100 µM | TGI (HCT-15 colon): > 100 µM | GI50 (SN12C renal): > 100 µM | TGI (SN12C renal): > 100 µM | GI50 (OVCAR-4 ovarian): > 100 µM | TGI (OVCAR-4 ovarian): > 100 µM | GI50 (HCT-116 colon): > 100 µM | TGI (HCT-116 colon): > 100 µM | GI50 (CCRF-CEM leukemia): > 100 µM | TGI (CCRF-CEM leukemia): > 100 µM | GI50 (HOP-62 NSCLC): > 100 µM | TGI (HOP-62 NSCLC): > 100 µM | GI50 (EKVX NSCLC): > 100 µM | TGI (EKVX NSCLC): > 100 µM | GI50 (MALME-3M melanoma): > 100 µM | TGI (MALME-3M melanoma): > 100 µM | GI50 (SK-MEL-2 melanoma): > 100 µM | TGI (SK-MEL-2 melanoma): > 100 µM | GI50 (DU-145 prostate): > 100 µM | TGI (DU-145 prostate): > 100 µM | GI50 (SW-620 colon): > 100 µM | TGI (SW-620 colon): > 100 µM | GI50 (SF-295 CNS): > 100 µM | TGI (SF-295 CNS): > 100 µM | GI50 (T-47D breast): 55.4 µM | TGI (T-47D breast): > 100 µM | GI50 (HCC-2998 colon): > 100 µM | TGI (HCC-2998 colon): > 100 µM | GI50 (PC-3 prostate): > 100 µM | TGI (PC-3 prostate): > 100 µM | GI50 (KM12 colon): > 100 µM | TGI (KM12 colon): > 100 µM | GI50 (OVCAR-8 ovarian): > 100 µM | TGI (OVCAR-8 ovarian): > 100 µM | GI50 (SF-268 CNS): > 100 µM | TGI (SF-268 CNS): > 100 µM

— PubChem BioAssay (NCI)
